# Laboratory results as given in patent US20220117938A1, “COMBINATON THERAPY WITH A DON PRODRUG AND AN IMMUNE CHECKPOINT INHIBITOR” (DRACEN PHARMACEUTICALS, INC., priority 2019, published 2022).
# Experiments:
# CT26.WT tumors = test: Anti-tumor efficacy of Compound 1 and Compound 1 in combination with anti-PD-1 in the CT26.WT syngeneic model (Example 10); type: in vivo, mice
# Experimental: Female BALB/c mice were inoculated subcutaneously in the right flank with CT26.WT cells for tumor development. Six days after tumor inoculation, mice with tumor sizes ranging from 30-81 mm^3 (average tumor size 55 mm^3) were selected and assigned into 10 groups using stratified randomization with 8 mice per group based upon their tumor volumes. The treatments were started from the day of randomization (defined as D0), Group 1 was treated with Vehicle control, 10 mpk, SC, qd 5 days on (Mon-Fri)×4 cycles; Group 2 was treated with Anti-PD-1, 10 mpk, IP, q4d×6; Group 3 was treated with Compound 1, 1.4 mpk, SC, qd 5 days on (Mon-Fri)×4 cycles; Group 4 was treated with Compound 1+anti-PD-1, 1.4 mpk+10 mpk, SC, qd 5 days on (Mon-Fri)×4 cycles+IP, q4d×6; Group 5 was treated with Compound 1, 10.5 mpk, IV, biw (Mon, Thu)×4 cycles; Group 6 was treated with Compound 1+anti-PD-1, 10.5 mpk+10 mpk, IV, biw (Mon, Thu)×4 cycles+IP, q4d×6; Group 7 was treated with Compound 1, 7 mpk IV, tiw (Mon, Wed, Fri)×4 cycles; Group 8 was treated with Compound 1+anti-PD-1, 7 mpk+10 mpk, IV, tiw (Mon, Wed, Fri)×4 cycles+IP, q4d×6; Group 9 was treated with Compound 1, 7 mpk IV, tiw (Mon, Tue, Wed)×4 cycles; and Group 10 was treated with Compound 1+anti-PD-1, 7 mpk+10 mpk, IV, tiw (Mon, Tue, Wed)×4 cycles+IP, q4d×6. The tumor sizes were measured three times per week during the treatment. Survival was monitored with tumor volume exceeding 2000 mm^3 as endpoint. The entire study was terminated on D56 after start of the treatment. All treatments were well-tolerated without any adverse effects or significant body weight loss.
# LK-2 tumors = test: Anti-tumor efficacy of Compound 1 in the LK-2 xenograft model (Example 13); type: in vivo, mice
# Experimental: Female BALB/c nude mice were inoculated subcutaneously in the right flank with LK-2 cells for tumor development. Four days after tumor inoculation, mice with tumor sizes reaching approximately 171 mm^3 (range from 112 mm^3 to 222 mm^3) were selected and assigned into groups using stratified randomization with 8 mice per group based upon their tumor volumes. The treatments were started from the day of randomization (defined as D0), Group 1 was treated with Vehicle control, 10 ml/kg, IP, bid×19; Group 2 was treated with Compound 1, 1.4 mg/kg, SC, 5d ON, 2d OFF×2 cycles, followed Compound 1, 2.8 mg/kg, SC, 5d ON, 2 d OFF×1 cycle; Group 3 was treated with Compound 1, 7 mg/kg, IV, tiw (Mon, Wed, Fri)×3 cycles; and Group 4 was treated with Compound 1, 3.3 mg/kg, IV, tiw (Mon, Wed, Fri)×3 cycles. The tumor sizes were measured two times per week during the treatment. The entire study was terminated on D18 after start of the treatment. All treatments were well-tolerated without any adverse effects or significant body weight loss.
# [1] = Group 3, 1.4 mpk SC qd Mon-Fri x4 cycles
# [2] = Group 3, 1.4 mpk SC qd Mon-Fri x4 cycles, day 14
# [3] = Group 5, 10.5 mpk IV biw x4 cycles
# [4] = Group 5, 10.5 mpk IV biw x4 cycles, day 14
# [5] = Group 7, 7 mpk IV tiw (Mon,Wed,Fri) x4 cycles
# [6] = Group 7, 7 mpk IV tiw (Mon,Wed,Fri) x4 cycles, day 14
# [7] = Group 9, 7 mpk IV tiw (Mon,Tue,Wed) x4 cycles
# [8] = Group 9, 7 mpk IV tiw (Mon,Tue,Wed) x4 cycles, day 14
# [9] = Group 2, 1.4 mg/kg SC 5 d ON 2 d OFF x2 cycles, then 2.8 mg/kg x1 cycle
# [10] = Group 3, 7 mg/kg IV tiw x3 cycles
# [11] = Group 4, 3.3 mg/kg IV tiw x3 cycles
smiles,measurement,setting,value
"CC(=O)N[C@@H](Cc1c[nH]c2ccccc12)C(=O)N[C@@H](CCC(=O)C=[N+]=[N-])C(=O)OC(C)C [Compound 1, Isopropyl (S)-2-((S)-2-acetamido-3-(1H-indol-3-yl)propanamido)-6-diazo-5-oxohexanoate]",ILS,CT26.WT tumors; [1],81.0%
same,MST,CT26.WT tumors; [1],38 days
same,RTV at day 14,CT26.WT tumors; [1],3.07 ± 0.38
same,Tumor Size at day 14,CT26.WT tumors; [1],172 ± 29 mm^3
same,Tumor volume,"CT26.WT tumors; Group 3, 1.4 mpk SC qd Mon-Fri x4 cycles, day 0",56 ± 5 mm^3
same,Tumor volume,"CT26.WT tumors; Group 3, 1.4 mpk SC qd Mon-Fri x4 cycles, day 2",59 ± 5 mm^3
same,Tumor volume,"CT26.WT tumors; Group 3, 1.4 mpk SC qd Mon-Fri x4 cycles, day 11",103 ± 13 mm^3
same,T/C,CT26.WT tumors; [2],17.06%
same,TGI,CT26.WT tumors; [2],88.16%
same,Tumor volume,CT26.WT tumors; [2],172 ± 29 mm^3
same,Tumor volume,"CT26.WT tumors; Group 3, 1.4 mpk SC qd Mon-Fri x4 cycles, day 16",163 ± 20 mm^3
same,Tumor volume,"CT26.WT tumors; Group 3, 1.4 mpk SC qd Mon-Fri x4 cycles, day 18",191 ± 26 mm^3
same,Tumor volume,"CT26.WT tumors; Group 3, 1.4 mpk SC qd Mon-Fri x4 cycles, day 21",258 ± 25 mm^3
same,Tumor volume,"CT26.WT tumors; Group 3, 1.4 mpk SC qd Mon-Fri x4 cycles, day 23",276 ± 36 mm^3
same,Tumor volume,"CT26.WT tumors; Group 3, 1.4 mpk SC qd Mon-Fri x4 cycles, day 25",278 ± 42 mm^3
same,Tumor volume,"CT26.WT tumors; Group 3, 1.4 mpk SC qd Mon-Fri x4 cycles, day 28",466 ± 62 mm^3
same,Tumor volume,"CT26.WT tumors; Group 3, 1.4 mpk SC qd Mon-Fri x4 cycles, day 30",682 ± 103 mm^3
same,Tumor volume,"CT26.WT tumors; Group 3, 1.4 mpk SC qd Mon-Fri x4 cycles, day 32",1012 ± 189 mm^3
same,Tumor volume,"CT26.WT tumors; Group 3, 1.4 mpk SC qd Mon-Fri x4 cycles, day 35",1417 ± 260 mm^3
same,ILS,CT26.WT tumors; [3],76.2%
same,MST,CT26.WT tumors; [3],37 days
same,RTV at day 14,CT26.WT tumors; [3],3.21 ± 1.03
same,Tumor Size at day 14,CT26.WT tumors; [3],170 ± 51 mm^3
same,Tumor volume,"CT26.WT tumors; Group 5, 10.5 mpk IV biw x4 cycles, day 0",56 ± 5 mm^3
same,Tumor volume,"CT26.WT tumors; Group 5, 10.5 mpk IV biw x4 cycles, day 2",52 ± 5 mm^3
same,Tumor volume,"CT26.WT tumors; Group 5, 10.5 mpk IV biw x4 cycles, day 11",113 ± 24 mm^3
same,T/C,CT26.WT tumors; [4],17.83%
same,TGI,CT26.WT tumors; [4],88.39%
same,Tumor volume,CT26.WT tumors; [4],170 ± 51 mm^3
same,Tumor volume,"CT26.WT tumors; Group 5, 10.5 mpk IV biw x4 cycles, day 16",214 ± 60 mm^3
same,Tumor volume,"CT26.WT tumors; Group 5, 10.5 mpk IV biw x4 cycles, day 18",226 ± 59 mm^3
same,Tumor volume,"CT26.WT tumors; Group 5, 10.5 mpk IV biw x4 cycles, day 21",381 ± 119 mm^3
same,Tumor volume,"CT26.WT tumors; Group 5, 10.5 mpk IV biw x4 cycles, day 23",439 ± 128 mm^3
same,Tumor volume,"CT26.WT tumors; Group 5, 10.5 mpk IV biw x4 cycles, day 25",562 ± 197 mm^3
same,Tumor volume,"CT26.WT tumors; Group 5, 10.5 mpk IV biw x4 cycles, day 28",849 ± 264 mm^3
same,ILS,CT26.WT tumors; [5],76.2%
same,MST,CT26.WT tumors; [5],37 days
same,RTV at day 14,CT26.WT tumors; [5],3.34 ± 0.97
same,Tumor Size at day 14,CT26.WT tumors; [5],201 ± 67 mm^3
same,Tumor volume,"CT26.WT tumors; Group 7, 7 mpk IV tiw (Mon,Wed,Fri) x4 cycles, day 0",55 ± 5 mm^3
same,Tumor volume,"CT26.WT tumors; Group 7, 7 mpk IV tiw (Mon,Wed,Fri) x4 cycles, day 2",61 ± 9 mm^3
same,Tumor volume,"CT26.WT tumors; Group 7, 7 mpk IV tiw (Mon,Wed,Fri) x4 cycles, day 11",111 ± 33 mm^3
same,T/C,CT26.WT tumors; [6],18.56%
same,TGI,CT26.WT tumors; [6],85.12%
same,Tumor volume,CT26.WT tumors; [6],201 ± 67 mm^3
same,Tumor volume,"CT26.WT tumors; Group 7, 7 mpk IV tiw (Mon,Wed,Fri) x4 cycles, day 16",238 ± 94 mm^3
same,Tumor volume,"CT26.WT tumors; Group 7, 7 mpk IV tiw (Mon,Wed,Fri) x4 cycles, day 18",256 ± 101 mm^3
same,Tumor volume,"CT26.WT tumors; Group 7, 7 mpk IV tiw (Mon,Wed,Fri) x4 cycles, day 21",471 ± 261 mm^3
same,ILS,CT26.WT tumors; [7],92.9%
same,MST,CT26.WT tumors; [7],40.5 days
same,RTV at day 14,CT26.WT tumors; [7],2.32 ± 0.84
same,Tumor Size at day 14,CT26.WT tumors; [7],132 ± 46 mm^3
same,Tumor volume,"CT26.WT tumors; Group 9, 7 mpk IV tiw (Mon,Tue,Wed) x4 cycles, day 0",56 ± 4 mm^3
same,Tumor volume,"CT26.WT tumors; Group 9, 7 mpk IV tiw (Mon,Tue,Wed) x4 cycles, day 11",79 ± 19 mm^3
same,T/C,CT26.WT tumors; [8],12.89%
same,TGI,CT26.WT tumors; [8],92.20%
same,Tumor volume,CT26.WT tumors; [8],132 ± 46 mm^3
same,Tumor volume,"CT26.WT tumors; Group 9, 7 mpk IV tiw (Mon,Tue,Wed) x4 cycles, day 16",131 ± 52 mm^3
same,Tumor volume,"CT26.WT tumors; Group 9, 7 mpk IV tiw (Mon,Tue,Wed) x4 cycles, day 18",160 ± 65 mm^3
same,Tumor volume,"CT26.WT tumors; Group 9, 7 mpk IV tiw (Mon,Tue,Wed) x4 cycles, day 21",248 ± 104 mm^3
same,Tumor volume,"CT26.WT tumors; Group 9, 7 mpk IV tiw (Mon,Tue,Wed) x4 cycles, day 23",252 ± 103 mm^3
same,Tumor volume,"CT26.WT tumors; Group 9, 7 mpk IV tiw (Mon,Tue,Wed) x4 cycles, day 25",255 ± 106 mm^3
same,Tumor volume,"CT26.WT tumors; Group 9, 7 mpk IV tiw (Mon,Tue,Wed) x4 cycles, day 28",447 ± 186 mm^3
same,Tumor volume,"CT26.WT tumors; Group 9, 7 mpk IV tiw (Mon,Tue,Wed) x4 cycles, day 30",695 ± 300 mm^3
same,RTV at day 11,LK-2 tumors; [9],8.13 ± 1.31
same,T/C,LK-2 tumors; [9],84.34%
same,TGI,LK-2 tumors; [9],19.84%
same,Tumor Size at day 14,LK-2 tumors; [9],1359 ± 207 mm^3
same,Tumor volume,"LK-2 tumors; Group 2, 1.4 mg/kg SC 5 d ON 2 d OFF x2 cycles, then 2.8 mg/kg x1 cycle, day 0",171 ± 10 mm^3
same,Tumor volume,"LK-2 tumors; Group 2, 1.4 mg/kg SC 5 d ON 2 d OFF x2 cycles, then 2.8 mg/kg x1 cycle, day 2",207 ± 19 mm^3
same,Tumor volume,"LK-2 tumors; Group 2, 1.4 mg/kg SC 5 d ON 2 d OFF x2 cycles, then 2.8 mg/kg x1 cycle, day 4",217 ± 24 mm^3
same,Tumor volume,"LK-2 tumors; Group 2, 1.4 mg/kg SC 5 d ON 2 d OFF x2 cycles, then 2.8 mg/kg x1 cycle, day 7",419 ± 81 mm^3
same,Tumor volume,"LK-2 tumors; Group 2, 1.4 mg/kg SC 5 d ON 2 d OFF x2 cycles, then 2.8 mg/kg x1 cycle, day 10",780 ± 128 mm^3
same,Tumor volume,"LK-2 tumors; Group 2, 1.4 mg/kg SC 5 d ON 2 d OFF x2 cycles, then 2.8 mg/kg x1 cycle, day 14",1359 ± 207 mm^3
same,RTV at day 11,LK-2 tumors; [10],6.29 ± 0.75
same,T/C,LK-2 tumors; [10],65.30%
same,TGI,LK-2 tumors; [10],40.73%
same,Tumor Size at day 14,LK-2 tumors; [10],1050 ± 113 mm^3
same,Tumor volume,"LK-2 tumors; Group 3, 7 mg/kg IV tiw x3 cycles, day 0",171 ± 11 mm^3
same,Tumor volume,"LK-2 tumors; Group 3, 7 mg/kg IV tiw x3 cycles, day 2",196 ± 9 mm^3
same,Tumor volume,"LK-2 tumors; Group 3, 7 mg/kg IV tiw x3 cycles, day 4",213 ± 8 mm^3
same,Tumor volume,"LK-2 tumors; Group 3, 7 mg/kg IV tiw x3 cycles, day 7",256 ± 13 mm^3
same,Tumor volume,"LK-2 tumors; Group 3, 7 mg/kg IV tiw x3 cycles, day 10",483 ± 44 mm^3
same,Tumor volume,"LK-2 tumors; Group 3, 7 mg/kg IV tiw x3 cycles, day 14",1050 ± 113 mm^3
same,Tumor volume,"LK-2 tumors; Group 3, 7 mg/kg IV tiw x3 cycles, day 17",1565 ± 175 mm^3
same,RTV at day 11,LK-2 tumors; [11],7.66 ± 0.88
same,T/C,LK-2 tumors; [11],79.51%
same,TGI,LK-2 tumors; [11],24.13%
same,Tumor Size at day 14,LK-2 tumors; [11],1294 ± 172 mm^3
same,Tumor volume,"LK-2 tumors; Group 4, 3.3 mg/kg IV tiw x3 cycles, day 0",170 ± 10 mm^3
same,Tumor volume,"LK-2 tumors; Group 4, 3.3 mg/kg IV tiw x3 cycles, day 2",193 ± 6 mm^3
same,Tumor volume,"LK-2 tumors; Group 4, 3.3 mg/kg IV tiw x3 cycles, day 4",211 ± 6 mm^3
same,Tumor volume,"LK-2 tumors; Group 4, 3.3 mg/kg IV tiw x3 cycles, day 7",374 ± 47 mm^3
same,Tumor volume,"LK-2 tumors; Group 4, 3.3 mg/kg IV tiw x3 cycles, day 10",577 ± 68 mm^3
same,Tumor volume,"LK-2 tumors; Group 4, 3.3 mg/kg IV tiw x3 cycles, day 14",1294 ± 172 mm^3
